Experimental data published in patent US20240366612A1, “COMPOUNDS AND METHODS FOR MODULATING NUCLEIC ACID SPLICING” (REMIX THERAPEUTICS INC., priority 2021, published 2024).

Columns and labels:
[1] = test system: HTT mRNA; test: Splicing RT-qPCR assay, HTT canonical (CJ) and alternative (AJ) junction mRNA; format: cell-based; conditions: Homo sapiens, A673 or K562 cells, 24 hours treatment; for IC50: decrease in CJ mRNA; for AC50: increase in AJ mRNA
Procedure: (§1) Compounds described herein were used to modulate RNA transcript abundance in cells. The expression of a target mRNA was measured by detecting the formation of an exon-exon junction in the canonical transcript (CJ). A compound mediated exon-inclusion event was detected by observing an increase in formation of a new junction with an alternative exon (AJ). Real-time qPCR assays were used to detect these splicing switches and interrogate the potency of various compounds towards different target genes. A high-throughput real time quantitative PCR (RT-qPCR) assay was developed to measure these two isoforms of the mRNA (CJ and AJ) for exemplary genes, such as HTT, SMN2, and MYB, together with a control housekeeping gene, GAPDH or GUSB or PPIA, used for normalization. Briefly, the A673 or K562 cell line was treated with various compounds described herein (e.g., compounds of Formula (I)). After treatment, the levels of the HTT, MYB, or SMN2 mRNA targets were determined from each sample of cell lysate by cDNA synthesis followed by qPCR.
(§2) • Cells-to-CT 1-step kit: ThermoFisher A25602, Cells-to-CT lysis reagent: ThermoFisher 4391851C, TaqMan™ Fast Virus 1-Step Master Mix: ThermoFisher 4444436 • GAPDH: VIC-PL, ThermoFisher 4326317E (Assay: Hs99999905_ml)—used for K562/suspension cell lines • GUSB: VIC-PL, ThermoFisher 4326320E (Assay: Hs99999908_ml)—used for K562/suspension cell lines • PPIA: VIC-PL, ThermoFisher 4326316E (Assay: Hs99999904_ml)—used for A673/adherent cell lines
(§3) The A673 cell line was cultured in DMEM with 10% FBS. Cells were diluted with full growth media and plated in a 96-well plate (15,000 cells in 100 ul media per well). The plate was incubated at 37° C. with 5% CO2 for 24 hours to allow cells to adhere. An 11-point 3-fold serial dilution of the compounds was made in DMSO then diluted in media in an intermediate plate. Compounds were transferred from the intermediate plate to the cell plate with the top dose at a final concentration of 10 uM in the well. Final DMSO concentration was kept at or below 0.25%. The cell plate was returned to the incubator at 37° C. with 5% CO2 for an additional 24 hours.
(§4) The K562 cell line was cultured in IMDM with 10% FBS. For K562, cells were diluted with full growth media and plated in either a 96-well plate (50,000 cells in 50 uL media per well) or a 384-well plate (8,000-40,000 cells in 45 uL media per well). An 11-point 3-fold serial dilution of the compounds were made in DMSO then diluted in media in an intermediate plate. Compound was transferred from the intermediate plate to the cell plate with the top dose at a final concentration of 10 uM in the well. Final DMSO concentration was kept at or below 0.25%. Final volume was 100 uL for 96-well plate and 50 uL for 384-well plate. The cell plate was then placed in an incubator at 37° C. with 5% CO2 for 24 hours.
(§5) The cells were then gently washed with 50 uL-100 uL cold PBS before proceeding to addition of lysis buffer. 30 uL-50 μL of room temperature lysis buffer with DNAse I (and optionally RNAsin) was added to each well. Cells were shaken/mixed thoroughly at room temperature for 5-10 minutes for lysis to take place and then 3 uL-5 μL of room temperature stop solution was added and wells were shaken/mixed again. After 2-5 minutes, the cell lysate plate was transferred to ice for RT-qPCR reaction setup. The lysates could also be frozen at −80° C. for later use.
(§6) In some cases, a direct lysis buffer was used. An appropriate volume of 3×lysis buffer (10 mM Tris, 150 mM NaCl, 1.5%-2.5% Igepal and 0.1-1 U/uL RNAsin, pH 7.4) was directly added to either K562 or A673 cells in media and mixed by pipetting 3 times. The plates were then incubated at room temperature with shaking/rocking for 20-50 minutes to allow for lysis to take place. After this time, the cell lysate plate was transferred to ice to set up for the RT-qPCR reactions. The lysates could also be frozen at −80° C. for later use. […]

[2] = test system: MYB mRNA; test: Splicing RT-qPCR assay, MYB canonical (CJ) and alternative (AJ) junction mRNA; format: cell-based; conditions: Homo sapiens, A673 or K562 cells, 24 hours treatment; for IC50: decrease in CJ mRNA; for AC50: increase in AJ mRNA
Procedure: as §1, §2, §3, §4, §5, §6

[3] = test system: HTT CJ mRNA; test: Gene panel canonical junction qPCR assay, HTT; format: cell-based; conditions: Homo sapiens, larger gene panel, read-out: HTT IC50 (decrease in CJ mRNA levels)
Procedure: as §1, §3, §4
(§7) The data analysis was performed by first determining the ΔCt vs the housekeeper gene. This ΔCt was then normalized against the DMSO control (ΔΔCt) and converted to RQ (relative quantification) using the 2^(−ΔΔCt) equation. The RQ were then converted to a percentage response by arbitrarily setting an assay window of 3.5 and 4.0 ΔCt for HTT-CJ and MYB-CJ respectively and an assay window of 9 and 3 ΔCt for HTT-AJ and MYB-AJ in 96 well format (50,000 K562 cells/well and 15,000 A673 cells per well) and an assay window of 3 and 4 ΔCt for HTT-CJ and MYB-CJ respectively and an assay window of 5 and 3 ΔCt for HTT-AJ and MYB-AJ respectively in 384 well format (8,000 K562 cells/well example). […] The percentage response was then fitted to the 4 parametric logistic equation to evaluate the concentration dependence of compound treatment. The increase in AJ mRNA is reported as AC50 (compound concentration having […] in AJ increase) while the decrease in CJ mRNA levels is reported as IC50 (compound concentration having 50% response in CJ decrease).
(§8) Additional studies were carried out for a larger panel of genes using the protocol provided above. The junction between flanking upstream and downstream exons was used to design canonical junction qPCR assays. At least one of the forward primer, reverse primer or the CY5-labeled 5′ nuclease probe (with 3′ quencher such as ZEN/Iowa Black FQ) was designed to overlap with the exon junction to capture the CJ mRNA transcript. […]

[4] = test system: MYB CJ mRNA; test: Gene panel canonical junction qPCR assay, MYB; format: cell-based; conditions: Homo sapiens, larger gene panel, read-out: MYB IC50 (decrease in CJ mRNA levels)
Procedure: as §1, §3, §4, §7, §8

[5] = test system: SMN2 CJ mRNA; test: Gene panel canonical junction qPCR assay, SMN2; format: cell-based; conditions: Homo sapiens, larger gene panel, read-out: SMN2 IC50 (decrease in CJ mRNA levels)
Procedure: as §1, §3, §4, §7, §8

[6] = test system: Target C CJ mRNA; test: Gene panel canonical junction qPCR assay, Target C; format: cell-based; conditions: Homo sapiens, larger gene panel, read-out: Target C IC50 (decrease in CJ mRNA levels)
Procedure: as §1, §3, §4, §7, §8

[7] = test system: HiBiT-tagged MYB protein in K562 cells; test: HiBiT protein abundance assay, MYB; format: cell-based, human; conditions: HiBiT-modified K562 cells, 24 hours, luminescence
Procedure: (§9) Compounds described herein were used to screen for effects on quantitative protein abundance using a HiBit assay system (Promega). Quantitative protein abundance was determined by measuring the protein levels of HiBit-tagged protein targets expressed in cell culture via luminescence using the Nano-Glo HiBiT Lytic Detection System, which uses a split complementation assay format to reconstitute NanoBiT enzyme to generate a luminescent signal. A protein abundance assay was developed such that endogenous protein targets could be modified with the HiBiT peptide tag and their abundance could be assessed after compound treatment. Briefly, K562 cell lines containing a HiBiT-modification were treated with various compounds described herein (e.g., compounds of Formulas (I), (II), or (III)). After treatment for 24 hours, the protein abundance of a specific target was determined by measuring luminescence.
(§10) • Promega Nano-Glo HiBiT Lytic Detection System (cat #N3030) • Corning 384-well TC-treated microplates (cat #3570) • Synthego Engineered Cells Knock-In Clones
(§11) Cells were maintained in IMDM with 10% FBS. Before the assay, cells were diluted with […] growth media (IMDM+1% FBS media) and were seeded in a 384-well plate at a density of 10000 cells/well (for each cell line listed in Table 5). Each compound was prepared as a 10-point 3-fold serial dilution in DMSO with the top dose at a final concentration of 10 μM in the well. Unmodified K562 cells were added at the previously specified density with DMSO to serve as an assay baseline and positive control (PC) and DMSO only with the respective modified cell lines was added to the negative control (NC) columns. Final DMSO concentration was kept at or below 0.25%. Treated cell plates were placed in an incubator at 37° C. with 5% CO2 for 24 hours. After 24 hours, 25 μL of Complete HiBit Lytic reagent was added to each well at room temperature (e.g. one plate requiring 10 mL Lytic Buffer, 100 μL LgBiT Protein, 200 μL Lytic Substrate), shaken for 5 minutes at 600 RPM, then left to sit for 10 minutes for signal to stabilize before reading on a Spark Cyto plate reader (Tecan) with a 500 ms measurement time.
(§12) To determine compound effects on protein abundance of each target in Table 5, the percent response for each respective cell line was calculated at each compound concentration as follows:
(§13) For the normalized response at each concentration, a four-parameter logistical regression was fit to the data and the response was interpolated at the 50% value to determine a concentration for protein abundance at 50% (IC50) the untreated control.

[8] = test system: HiBiT-tagged Target C protein in K562 cells; test: HiBiT protein abundance assay, Target C; format: cell-based, human; conditions: HiBiT-modified K562 cells, 24 hours, luminescence
Procedure: as §9, §10, §11, §12, §13

[9] = test system: HiBiT-tagged HTT protein in K562 cells; test: HiBiT protein abundance assay, HTT; format: cell-based, human; conditions: HiBiT-modified K562 cells, 24 hours, luminescence
Procedure: as §9, §10, §11, §12, §13

[10] = Cell Titer Glo 2.0 cell viability assay; conditions: human, K562 cells
Procedure: Compounds described herein were screened for toxicity in K562 (human chronic myelogenous leukemia) cells using a Cell Titer Glo 2.0 assay.
• Promega CellTiter-Gbo® 2.0 Cell Viability Assay (cat #G9241) • Corning 384-well TC-treated microplates (cat #3570)
Cells were plated at 500 cells/well (K562 cells) in 45 μL of IMDM supplemented with 10% FBS in a 384-well opaque plate. Wells containing only medium were used as a blank control. Test compounds (e.g., compounds of Formula (I), (II), and (III)) were first serially diluted in DMSO then diluted 1:100 with IMDM+10% FBS. The final concentration of DMSO was 0.1% in each well. The cells were incubated for 72 hours at 37° C. and 5% CO2 before assaying with Cell Titer Glo 2.0 reagent.

Cc1cn2cc(-c3cc4ncn([C@H]5CNCC[C@@H]5O)c(=O)c4s3)cc(F)c2n1 (relative stereo) [Compound 281, 6-{8-fluoro-2-methylimidazo[1,2-a]pyridin-6-yl}-3-[(trans)-4-hydroxypiperidin-3-yl]thieno[3,2-d]pyrimidin-4-one]
IC50 [1]: 1000 to 10000 nM | AC50 [1]: 1000 to 10000 nM | IC50 [2]: 1000 to 10000 nM | AC50 [2]: 1000 to 10000 nM | IC50 [3]: 1000 to 10000 nM | IC50 [4]: 1000 to 10000 nM | IC50 [5]: 1000 to 10000 nM | IC50 [6]: 1000 to 10000 nM

CN1CCN(c2nc3ncn(-c4ccc5nn(C)cc5c4)c(=O)c3s2)CC1 [Compound 182, 6-(2-methyl-2H-indazol-5-yl)-2-(4-methylpiperazin-1-yl)thiazolo[4,5-d]pyrimidin-7(6H)-one]
IC50 [1]: 1000 to 10000 nM | AC50 [1]: 1000 to 10000 nM | IC50 [3]: 1000 to 10000 nM | IC50 [5]: 1000 to 10000 nM

Cc1cc(-c2cn3c(=O)cc(N4CCN(C)CC4)nc3s2)cc2cn(C)nc12 [Compound 183, 2-(2,7-dimethyl-2H-indazol-5-yl)-7-(4-methylpiperazin-1-yl)-5H-thiazolo[3,2-a]pyrimidin-5-one]
IC50 [1]: > 10000 nM | AC50 [1]: > 10000 nM | IC50 [2]: > 10000 nM | AC50 [2]: > 10000 nM | IC50 [3]: > 10000 nM | IC50 [4]: > 10000 nM | IC50 [5]: 1000 to 10000 nM | IC50 [6]: > 10000 nM

Cc1cn2cc(-c3cn4c(=O)cc(N5CCN(C)CC5)nc4s3)cc(F)c2n1 [Compound 184]
IC50 [1]: > 10000 nM | AC50 [1]: > 10000 nM | IC50 [2]: > 10000 nM | AC50 [2]: 1000 to 10000 nM | IC50 [3]: > 10000 nM | IC50 [4]: > 10000 nM | IC50 [5]: 1000 to 10000 nM

Cc1cn2cc(-c3cc4ncn([C@H]5CCNC[C@@H]5O)c(=O)c4s3)cc(F)c2n1 [Compound 280]
IC50 [1]: 100 to 1000 nM | AC50 [1]: 100 to 1000 nM | IC50 [2]: 100 to 1000 nM | AC50 [2]: 100 to 1000 nM | IC50 [3]: 100 to 1000 nM | IC50 [4]: 100 to 1000 nM | IC50 [5]: 100 to 1000 nM | IC50 [6]: 100 to 1000 nM

Cc1c(O)c(-c2nc3c(=O)n(C4CCNCC4)cnc3s2)cc2cn(C)nc12 [Compound 283]
IC50 [7]: 1 to 10 µM | IC50 [8]: 1 to 10 µM | IC50 [9]: 1 to 10 µM | GI50 at 72 h [10]: 1 to 10 µM

O=c1c2sc(-c3ccc(-c4cn[nH]c4)cc3O)nc2ncn1C1CCNCC1 [Compound 334]
IC50 [7]: > 10 µM | IC50 [8]: > 10 µM | IC50 [9]: > 10 µM | GI50 at 72 h [10]: > 10 µM

COc1c(-c2nc3ncn(C4CCNCC4)c(=O)c3s2)cc2cn(C)nc2c1C [Compound 335, 2-(6-methoxy-2,7-dimethylindazol-5-yl)-6-(piperidin-4-yl)-[1,3]thiazolo[4,5-d]pyrimidin-7-one]
IC50 [7]: > 10 µM | IC50 [8]: > 10 µM | IC50 [9]: > 10 µM | GI50 at 72 h [10]: > 10 µM

Cc1c(O)c(-c2nc3ncn(C4CCNCC4)c(=O)c3s2)cc2cn(C)nc12 [Compound 336, 2-(6-hydroxy-2,7-dimethylindazol-5-yl)-6-(piperidin-4-yl)-[1,3]thiazolo[4,5-d]pyrimidin-7-one]
IC50 [7]: 0.1 to 1 µM | IC50 [8]: 0.1 to 1 µM | IC50 [9]: 0.1 to 1 µM | GI50 at 72 h [10]: 1 to 10 µM

Cc1cc(-c2cc3ccn(C4CCN(C)CC4)c(=O)c3s2)cc2cn(C)nc12 [Compound 807]
IC50 [1]: 100 to 1000 nM | AC50 [1]: 100 to 1000 nM | IC50 [2]: 100 to 1000 nM | AC50 [2]: 100 to 1000 nM | IC50 [3]: 100 to 1000 nM | IC50 [4]: 100 to 1000 nM | IC50 [5]: < 100 nM | IC50 [6]: 1000 to 10000 nM | GI50 at 72 h [10]: 1 to 10 µM
